Measured values as given in patent publication US10842779B2, “Heterocyclic compounds and their use in preventing or treating bacterial infections” (priority 2015, dated 2020).
Read-outs that look alike come from different tables or passages of the source.

Experiments:
Assay in all cases: MIC of compounds alone, broth microdilution
Assay type in all cases: cell-based
C. freundii = settings: Citrobacter freundii, alone, read-out: MIC
Procedure: (§1) Method 2: MIC of Compounds and Synergy with Ceftazidime Against Bacterial Isolates (Table 2 and 3)
(§2) Compounds of the present invention were assessed against genotyped bacterial strains alone or in combination with the β-lactam ceftazidime. In the assays, MICs of said compounds, or of ceftazidime at fixed concentrations of said compounds were determined by the broth microdilution method according to the Clinical Laboratory Standards Institute (CLSI—M7-A7). Briefly, compounds alone according to the invention were prepared in DMSO and spotted (2 μL each) on sterile polystyrene plates (Corning, 3788). Compounds and ceftazidime dilutions were prepared in DMSO and spotted (1 μL each) on sterile polystyrene plates (Corning, 3788). Log phase bacterial suspensions were adjusted to a final density of 5×10^5 cfu/mL in cation-adjusted Mueller-Hinton broth (Beckton-Dickinson) and added to each well (98 μL). Microplates were incubated for 16-20 h at 35° C. in ambient air. The MIC of the compounds was defined as the lowest concentration of said compounds that prevented bacterial growth as read by visual inspection. The MIC of ceftazidime at each compound concentration was defined as the lowest concentration of ceftazidime that prevented bacterial growth as read by visual inspection.

C. murliniae = settings: alone; CMU 210102; beta-lactamases VIM-4; read-out: MIC
Procedure: as §1, §2

E. aerogenes = settings: Klebsiella aerogenes; alone; EAE 200261; beta-lactamases TEM-x AmpC; read-out: MIC
Procedure: as §1, §2

E. cloacae = settings: Enterobacter cloacae
Procedure: as §1, §2

E. coli = settings: Escherichia coli
Procedure: as §1, §2

K. oxytoca = settings: Klebsiella oxytoca; alone; KOX UFR21; beta-lactamases TEM-1, CTX-M-15 OXA-48; read-out: MIC
Procedure: as §1, §2

K. pneumoniae = settings: Klebsiella pneumoniae, read-out: MIC
Procedure: as §1, §2

M. morganii = settings: Morganella morganii, MMO 200321, beta-lactamases TEM-1, CTX-M-15 OXA-1
Procedure: as §1, §2

P. aeruginosa = settings: Pseudomonas aeruginosa, alone, read-out: MIC
Procedure: as §1, §2

P. mirabilis = settings: Proteus mirabilis, PMI UFR82, beta-lactamases CMY-2
Procedure: as §1, §2

S. marcescens = settings: Serratia marcescens, SMA UFR30, beta-lactamases OXA-405
Procedure: as §1, §2

O=C(O)C(F)(F)F.O=C1N2C[C@H](c3scnc3[C@H]2c2ncc[nH]2)N1OS(=O)(=O)[O-].[Na+] (relative stereo) [Example 1, Sodium and 2,2,2-trifluoroacetate [trans-7-(1H-imidazol-3-ium-2-yl)-9-oxo-3-thia-5,8,10-triaza-tricyclo[6.2.1.0^2,6]undeca-2(6),4-dien-10-yl]sulfate]
MIC (C. freundii; CFR UFR10, beta-lactamases OXA-48): 1 µg/mL
MIC (C. freundii; CFR UFR11, beta-lactamases TEM-1 OXA-1 OXA-48): 8 µg/mL
MIC (C. freundii; CFR UFR37, beta-lactamases TEM-1, CTX-M-15 NDM-1): 2 µg/mL
MIC (C. murliniae): 4 µg/mL
MIC (E. aerogenes): 8 µg/mL
MIC (E. cloacae; ECL 2185D, beta-lactamases OXA-163, read-out: MIC): 8 µg/mL
MIC (E. cloacae; ECL 190310, beta-lactamases AmpC, read-out: MIC): 4 µg/mL
MIC (E. cloacae; ECL 190408, beta-lactamases TEM-1, CTX-M-15 OXA-1, read-out: MIC): 0.5 µg/mL
MIC (E. cloacae; ECL 200138, beta-lactamases AmpC, read-out: MIC): 8 µg/mL
MIC (E. cloacae; ECL 200322, beta-lactamases TEM-1, CTX-M-15 OXA-1, read-out: MIC): 1 µg/mL
MIC (E. cloacae; ECL 260033, beta-lactamases AmpC, read-out: MIC): 8 µg/mL
MIC (E. cloacae; ECL 260253, beta-lactamases TEM-1 KPC-3, read-out: MIC): 8 µg/mL
MIC (E. cloacae; ECL 260323, beta-lactamases AmpC, read-out: MIC): 4 µg/mL
MIC (E. cloacae; ECL 260508, beta-lactamases TEM-1, CTX-M-15, read-out: MIC): 1 µg/mL
MIC (E. cloacae; ECL HAN, beta-lactamases OXA-35, read-out: MIC): 8 µg/mL
MIC (E. cloacae; ECL NEM146383, beta-lactamases AmpC, read-out: MIC): 2 µg/mL
MIC (E. cloacae; ECL P99, beta-lactamases AmpC, read-out: MIC): 4 µg/mL
MIC (E. cloacae; ECL UFR12, beta-lactamases CTX-M-9 OXA-48, read-out: MIC): 2 µg/mL
MIC (E. cloacae; ECL UFR13, beta-lactamases TEM-1, SHV-12, CTX-M-9 OXA-48, read-out: MIC): 2 µg/mL
MIC (E. cloacae; ECL UFR14, beta-lactamases TEM-1, SHV-12, CTX-M-15 DHA-1 OXA-1 OXA-48, read-out: MIC): 8 µg/mL
MIC (E. cloacae; ECL UFR38, beta-lactamases CTX-M-15 NDM-1, read-out: MIC): 1 µg/mL
MIC (E. cloacae; ECL UFR51, beta-lactamases SHV-12 IMP-8, read-out: MIC): 0.5 µg/mL
MIC (E. cloacae; ECL UFR60, beta-lactamases TEM-1, CTX-M-15 KPC-2, read-out: MIC): 8 µg/mL
MIC (E. cloacae; ECL UFR70, beta-lactamases TEM-1, CTX-M-15 CMY-2 OXA-1, read-out: MIC): 1 µg/mL
MIC (E. cloacae; ECL UFR84, beta-lactamases TEM-1 AmpC OXA-1, read-out: MIC): 8 µg/mL
MIC (E. cloacae; ECL UFR85, beta-lactamases TEM-1, CTX-M-15 AmpC, read-out: MIC): 2 µg/mL
MIC (E. coli; ECO 180070, beta-lactamases TEM-1, CTX-M-15, read-out: MIC): 1 µg/mL
MIC (E. coli; ECO 190314, beta-lactamases CTX-M-1, read-out: MIC): 0.5 µg/mL
MIC (E. coli; ECO 190317, beta-lactamases TEM-1, SHV-12, CTX-M-15 OXA-1, read-out: MIC): 1 µg/mL
MIC (E. coli; ECO 190457, beta-lactamases CTX-M-15 OXA-1, read-out: MIC): 1 µg/mL
MIC (E. coli; ECO 190549, beta-lactamases CTX-M-1, read-out: MIC): 0.25 µg/mL
MIC (E. coli; ECO 200159, beta-lactamases TEM-1, CTX-M-14, read-out: MIC): 0.25 µg/mL
MIC (E. coli; ECO 200259, beta-lactamases CTX-M-14, read-out: MIC): 0.5 µg/mL
MIC (E. coli; ECO 200344, beta-lactamases CTX-M-1, read-out: MIC): 0.5 µg/mL
MIC (E. coli; ECO 260096, beta-lactamases CTX-M-132, read-out: MIC): 4 µg/mL
MIC (E. coli; ECO 260304, beta-lactamases CTX-M-15, read-out: MIC): 1 µg/mL
MIC (E. coli; ECO 260508, beta-lactamases TEM-1, CTX-M-15 OXA-1, read-out: MIC): 2 µg/mL
MIC (E. coli; ECO UFR16, beta-lactamases TEM-1, CTX-M-15 OXA-1 OXA-48, read-out: MIC): 2 µg/mL
MIC (E. coli; ECO UFR17, beta-lactamases TEM-1, CTX-M-15 CMY-2 OXA-1 OXA-181, read-out: MIC): 4 µg/mL
MIC (E. coli; ECO UFR18, beta-lactamases CTX-M-15 OXA-204, read-out: MIC): 1 µg/mL
MIC (E. coli; ECO UFR19, beta-lactamases CTX-M-15 CMY-2 OXA-1 OXA-204, read-out: MIC): 1 µg/mL
MIC (E. coli; ECO UFR32, beta-lactamases TEM-1, VEB-1 OXA-10, read-out: MIC): 1 µg/mL
MIC (E. coli; ECO UFR39, beta-lactamases CTX-M-15 NDM-1, read-out: MIC): 2 µg/mL
MIC (E. coli; ECO UFR41, beta-lactamases TEM-1, CTX-M-15 CMY-2 OXA-1 NDM-4, read-out: MIC): 16 µg/mL
MIC (E. coli; ECO UFR45, beta-lactamases TEM-1 CMY-4 OXA-1 OXA-48 VIM-1, read-out: MIC): 0.5 µg/mL
MIC (E. coli; ECO UFR52, beta-lactamases TEM-1, SHV-12 IMP-8, read-out: MIC): 1 µg/mL
MIC (E. coli; ECO UFR61O, beta-lactamases TEM-1 KPC-2, read-out: MIC): 1 µg/mL
MIC (E. coli; ECO UFR62, beta-lactamases TEM-1, CTX-M-9 KPC-2, read-out: MIC): 0.5 µg/mL
MIC (E. coli; ECO UFR74, beta-lactamases SHV-1 DHA-1, read-out: MIC): 2 µg/mL
MIC (K. oxytoca): 4 µg/mL
MIC (K. pneumoniae; BAA1898, alone, KPN BAA-1898, beta-lactamases TEM-1, SHV-11, SHV-12 KPC-2): 4 µg/mL
MIC (K. pneumoniae; alone, KPN 6299, beta-lactamases TEM-1, SHV-11 OXA-163): 16 µg/mL
MIC (K. pneumoniae; alone, KPN 110376, beta-lactamases TEM-1, SHV-1, CTX-M-15 OXA-1 OXA-48): 2 µg/mL
MIC (K. pneumoniae; alone, KPN 131119, beta-lactamases TEM-1, SHV-11, CTX-M-15 OXA-1 OXA-48): 4 µg/mL
MIC (K. pneumoniae; alone, KPN 160143, beta-lactamases TEM-1, SHV-1, CTX-M-15 KPC-2 OXA-1): 4 µg/mL
MIC (K. pneumoniae; alone, KPN 190128, beta-lactamases TEM-1, SHV-32, CTX-M-15 OXA-1): 4 µg/mL
MIC (K. pneumoniae; alone, KPN 190270, beta-lactamases TEM-1, SHV-76, CTX-M-15 OXA-1): 8 µg/mL
MIC (K. pneumoniae; alone, KPN 190425, beta-lactamases TEM-1, SHV-1, CTX-M-15 OXA-1): 4 µg/mL
MIC (K. pneumoniae; alone, KPN 190551, beta-lactamases TEM-1, SHV-1, CTX-M-15 OXA-1): 2 µg/mL
MIC (K. pneumoniae; alone, KPN 200047, beta-lactamases TEM-1, SHV-32, CTX-M-15 OXA-1): 2 µg/mL
MIC (K. pneumoniae; alone, KPN 200327, beta-lactamases TEM-1, SHV-1, CTX-M-15 OXA-1): 2 µg/mL
MIC (K. pneumoniae; alone, KPN 260251, beta-lactamases TEM-1, SHV-11, SHV-12, CTX-M-15 KPC-2): 4 µg/mL
MIC (K. pneumoniae; alone, KPN 260252, beta-lactamases TEM-1, SHV-11 KPC-3): > 32 µg/mL
MIC (K. pneumoniae; alone, KPN 260376, beta-lactamases SHV-1, SHV-49 OXA-1): 2 µg/mL
MIC (K. pneumoniae; alone, KPN 270077, beta-lactamases TEM-1, SHV-1, CTX-M-15): 8 µg/mL
MIC (K. pneumoniae; alone, KPN 700603, beta-lactamases SHV-18 OXA-2): 4 µg/mL
MIC (K. pneumoniae; alone, KPN 6122012, beta-lactamases SHV-1 NDM-1): 8 µg/mL
MIC (K. pneumoniae; alone, KPN ARA, beta-lactamases TEM-1, SHV-11, CTX-M-15 OXA-1 OXA-48): 4 µg/mL
MIC (K. pneumoniae; alone, KPN LIB, beta-lactamases SHV-11 OXA-48): 2 µg/mL
MIC (K. pneumoniae; alone, KPN UFR22_O, beta-lactamases TEM-1, SHV-1 OXA-48): 4 µg/mL
MIC (K. pneumoniae; alone, KPN UFR24, beta-lactamases TEM-1, SHV-2, SHV-11 OXA-1 OXA-48 OXA-47): 8 µg/mL
MIC (K. pneumoniae; alone, KPN UFR25, beta-lactamases TEM-1, SHV-11, CTX-M-15 OXA-162): 2 µg/mL
MIC (K. pneumoniae; alone, KPN UFR27, beta-lactamases TEM-1, SHV-28, CTX-M-15 OXA-204): 4 µg/mL
MIC (K. pneumoniae; alone, KPN UFR28, beta-lactamases TEM-1, SHV-1, CTX-M-15 OXA-1 OXA-232): 2 µg/mL
MIC (K. pneumoniae; alone, KPN UFR42, beta-lactamases SHV-2, CTX-M-15 OXA-1 OXA-181 NDM-1): 4 µg/mL
MIC (K. pneumoniae; alone, KPN UFR43, beta-lactamases SHV-11, CTX-M-15 CMY-2 OXA-1 NDM-1): 16 µg/mL
MIC (K. pneumoniae; alone, KPN UFR53, beta-lactamases TEM-1 IMP-1): 4 µg/mL
MIC (K. pneumoniae; alone, KPN UFR65, beta-lactamases TEM-1, SHV-11 KPC-2): 16 µg/mL
MIC (K. pneumoniae; alone, KPN UFR66, beta-lactamases TEM-1, SHV-11, CTX-M-15 KPC-2): 8 µg/mL
MIC (K. pneumoniae; alone, KPN UFR68, beta-lactamases TEM-1, SHV-11, CTX-M-15 KPC-3): 8 µg/mL
MIC (K. pneumoniae; alone, KPN UFR77, beta-lactamases CMY-2): 4 µg/mL
MIC (K. pneumoniae; alone, KPN UFR79, beta-lactamases DHA-1 OXA-1): 4 µg/mL
MIC (K. pneumoniae; alone, KPN UFR80, beta-lactamases SHV-11 DHA-1 OXA-1): 1 µg/mL
MIC (K. pneumoniae; alone, KPN UFR81, beta-lactamases TEM-1, SHV-1 DHA-1 OXA-48): 32 µg/mL
MIC (M. morganii): 32 µg/mL
MIC (P. aeruginosa; PAE CIP107051, beta-lactamases TEM-24): > 32 µg/mL
MIC (P. aeruginosa; PAE MUS, beta-lactamases OXA-20 OXA-18): > 32 µg/mL
MIC (P. mirabilis): 32 µg/mL
MIC (S. marcescens): 16 µg/mL
